Measured values taken from patent publication US5175168A, “Intermediates for 1,2-dideoxy-2-fluoronojirimycin” (Monsanto Company, priority 1991, dated 1992).

Legend:
Assay type in all cases: biochemical
yeast α-glucosidase = target: T1, yeast α-glucosidase (Saccharomyces cerevisiae, UniProt P53341); assay: α-Glucosidase Inhibition Assay, pH 7.4; settings: read-out: ALPHA GLUCOSIDASE inhibition; for inhibition at 1000 µM: @ 1 mM; for inhibition at 5000 µM: @ 5 mM
T1 construct: purchased Sigma
Procedure: (§1) The glycosidase inhibition activity is determined by modifying an assay procedure described in Evans et al, Phytochemistry, 22, pp. 768-770 (1983). More particularly, yeast α-glucosidase and almond β-glucosidase activities were measured by the Evans et al method which was modified by assaying activities at pH 7.4 in N-2-hydroxyethylpiperazine-N-2-ethane sulfonic acid (HEPES) buffer, measuring in 96 well microtiter plates, and including 10% DMSO in control and test samples.
(§2) The release of p-nitrophenol from the substrate p-nitrophenylglycoside was measured spectrophotometrically in the presence and absence of test compound. Each assay included a known inhibitor of the enzyme as a standard. IC50 values were determined for compounds which inhibited the enzymes more than 50& at a 1 millimolar concentration.
To 100 ul 50 mM HEPES buffer, pH 7.4, in a microtiter plate, 20 ul test compound in DMSO (DMSO alone in control)and 40 ul (0.013 units) yeast α-glucosidase (Sigma) in HEPES buffer were added and pre-incubated at room temperature 15 minutes. 40 ul 1.25 mM p-nitro-phenyl-α-D-glucopyranoside (Sigma) in HEPES buffer, as substrate was added and the absorbance change at 405 nm was monitored in a Biotek EIA Autoreader. Absorption change was measured at 15 to 25 minutes (reaction was linear for at least 30 minutes). Each sample was tested in triplicate. IC50 values were determined from the linear portion of the log concentration vs percent inhibition curve obtained from a minimum of 3 points. Deoxynojirimycin was used as standard inhibitor.

almond β-glucosidase [1] = assay: β-Glucosidase Inhibition Assay, pH 4.8
Procedure: as §1, §2
To 100 ul 50 mM sodium citrate buffer, pH 4.8, in a microtiter plate, 20 ul test compound in DMSO (DMSO alone in control) and 20 ul (0.017 units) β-glucosidase (Sigma) in citrate buffer were added and pre-incubated at room temperature 15 minutes. 20 ul 2.50 mM p-nitrophenyl-β-D-glucopyranside in citrate buffer was added as substrate and incubated at room temperature 20 minutes (reaction is linear for at least 30 minutes). 50 ul 0.4 M NaOH was added and the absorption change at 405 nm was determined utilizing a Biotek EIA Autoreader. Each sample was tested in triplioate. IC50 values were determined from the linear portion of the log concentration vs percent inhibition curve obtained from a minimum of 3 points. Castanospermine was used as standard inhibitor.

almond β-glucosidase [2] = assay: β-Glucosidase Inhibition Assay, pH 7.4
Procedure: as §1, §2
To 100 ul 50 mM HEPES buffer, pH 7.4, in a microtiter plate, 20 ul test compound in DMSO (DMSO alone in control) and 40 ul (0.136 units) β-glucosidase (Sigma) in HEPES buffer were added and pre-incubated at room temperature 15 minutes. 40 ul 1.25 mM p-nitrophenylβ-D-glucopyranoside in HEPES buffer was added as substrate and the absorbance change at 405 nm was monitored utilizing a Biotek EIA Autoreader. Absorption change was measured at 15 to 25 minutes (reaction is linear for at least 30 minutes). Each sample was tested in triplicate. IC50 values were determined from the linear portion of the log concentration vs percent inhibition curve obtained from a minimum of 3 points. Castanospermine was used as standard inhibitor.

ALPHA MANNOSIDASE [3] = target: T2, ALPHA MANNOSIDASE (Canavalia ensiformis, UniProt C0HJB3); assay: Alpha mannosidase inhibition, pH 4.5; settings: for inhibition at 1000 µM: @ 1 mM; for inhibition at 5000 µM: @ 5 mM
T2 sequence (C0HJB3 1-562 limits assumed): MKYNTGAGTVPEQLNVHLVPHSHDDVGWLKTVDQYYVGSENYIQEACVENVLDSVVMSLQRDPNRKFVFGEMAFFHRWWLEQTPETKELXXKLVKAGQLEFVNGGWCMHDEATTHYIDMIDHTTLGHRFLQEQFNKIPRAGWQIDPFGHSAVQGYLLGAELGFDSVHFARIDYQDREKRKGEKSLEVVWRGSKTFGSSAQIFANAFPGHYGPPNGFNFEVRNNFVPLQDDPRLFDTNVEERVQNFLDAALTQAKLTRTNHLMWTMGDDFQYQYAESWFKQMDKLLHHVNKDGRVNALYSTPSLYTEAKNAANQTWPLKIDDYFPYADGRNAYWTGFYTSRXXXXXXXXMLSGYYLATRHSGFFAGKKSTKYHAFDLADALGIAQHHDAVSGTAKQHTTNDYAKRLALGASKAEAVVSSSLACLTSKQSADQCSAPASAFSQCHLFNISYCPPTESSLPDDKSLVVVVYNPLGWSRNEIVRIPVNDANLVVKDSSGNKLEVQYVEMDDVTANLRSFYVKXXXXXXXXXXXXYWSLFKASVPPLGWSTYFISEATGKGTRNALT
T2 sequence (C0HJB3 563-981 limits assumed): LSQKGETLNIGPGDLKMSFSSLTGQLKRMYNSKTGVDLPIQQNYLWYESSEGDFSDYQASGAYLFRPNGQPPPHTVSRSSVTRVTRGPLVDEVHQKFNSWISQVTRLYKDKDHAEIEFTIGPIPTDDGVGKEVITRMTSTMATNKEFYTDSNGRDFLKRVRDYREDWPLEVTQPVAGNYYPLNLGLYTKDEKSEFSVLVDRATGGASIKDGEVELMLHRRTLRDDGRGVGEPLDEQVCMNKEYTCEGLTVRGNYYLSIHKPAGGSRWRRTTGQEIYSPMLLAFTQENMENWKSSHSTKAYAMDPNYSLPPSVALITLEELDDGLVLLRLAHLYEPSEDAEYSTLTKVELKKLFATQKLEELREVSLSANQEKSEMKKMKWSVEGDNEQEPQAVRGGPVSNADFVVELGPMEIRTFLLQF

ALPHA MANNOSIDASE [4] = target: T2, ALPHA MANNOSIDASE; assay: Alpha mannosidase inhibition, pH 7.4; settings: for inhibition at 1000 µM: @ 1 mM; for inhibition at 5000 µM: @ 5 mM

T1 sequence (P53341 whole entry): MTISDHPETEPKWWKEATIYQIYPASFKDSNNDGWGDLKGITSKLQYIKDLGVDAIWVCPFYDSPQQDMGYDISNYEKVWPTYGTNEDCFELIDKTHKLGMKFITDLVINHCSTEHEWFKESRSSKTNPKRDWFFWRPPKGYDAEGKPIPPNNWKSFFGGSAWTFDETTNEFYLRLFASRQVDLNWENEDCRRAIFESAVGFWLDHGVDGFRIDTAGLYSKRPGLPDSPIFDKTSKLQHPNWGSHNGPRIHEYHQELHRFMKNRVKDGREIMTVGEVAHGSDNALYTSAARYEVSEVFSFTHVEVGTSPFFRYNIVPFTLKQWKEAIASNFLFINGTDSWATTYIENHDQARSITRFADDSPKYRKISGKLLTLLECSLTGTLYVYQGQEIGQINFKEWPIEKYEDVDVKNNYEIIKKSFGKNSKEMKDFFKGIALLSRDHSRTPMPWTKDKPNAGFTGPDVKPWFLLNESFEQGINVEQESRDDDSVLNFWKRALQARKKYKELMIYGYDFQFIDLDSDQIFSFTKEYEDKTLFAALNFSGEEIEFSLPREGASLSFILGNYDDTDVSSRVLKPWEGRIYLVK

Row | Structure (SMILES) | inhibition at 1000 µM (yeast α-glucosidase) [%] | inhibition at 5000 µM (yeast α-glucosidase) [%] | BETA GLUCOSIDASE-pH 4.8 inhibition (almond β-glucosidase [1]; @ 1 mM) [%] | BETA GLUCOSIDASE-pH 4.8 inhibition (almond β-glucosidase [1]; @ 5 mM) [%] | BETA GLUCOSIDASE-pH 7.4 inhibition (almond β-glucosidase [2]; @ 1 mM) [%] | BETA GLUCOSIDASE-pH 7.4 inhibition (almond β-glucosidase [2]; @ 5 mM) [%] | inhibition at 1000 µM (ALPHA MANNOSIDASE [3]) [%] | inhibition at 5000 µM (ALPHA MANNOSIDASE [3]) [%] | inhibition at 1000 µM (ALPHA MANNOSIDASE [4]) [%] | inhibition at 5000 µM (ALPHA MANNOSIDASE [4]) [%]
1 | OC[C@H]1NC[C@H](F)[C@@H](O)[C@@H]1O [Compound 1, 1,2-dideoxy-2-fluoronojirimycin] | 24 | 64 | 6 | 25 | 11 | 25 | 4 | 5 | 19 | 11
2 | CCCCN1C[C@H](F)[C@@H](O)[C@H](O)[C@H]1CO [Compound 2, N-butyl-1,2-dideoxy-2-fluoronojirimycin] | 8 | 13 | 2 | -6 | 4 | 11 | 3 | 5 | 4 | 12
